Data from patent publication US11061034B2, “Blood biomarker for use in evaluation of effect of drug therapy on kidney cancer” (PUBLIC UNIVERSITY CORPORATION YOKOHAMA CITY UNIVERSITY, priority 2015, dated 2021).

Tested on: kidney cancer
Assay: Kidney cancer activity by FDG PET/CT during mTOR inhibitor therapy
Format: in vivo, human
Procedure: A change in blood PARK7 concentration was observed during treatment in four patients with kidney cancer who began to receive administration of mTOR inhibitor. The blood PARK7 concentration was measured as a concentration of plasma PARK7 with the commercially available ELISA kit in the same manner as in 1, described above, and the change in blood PARK7 level was evaluated by comparing values detected by a luminometer. The therapeutic effect of the mTOR inhibitor was clinically evaluated by FDG PET/CT. Kidney cancer progression was evaluated by FDG PET/CT, in parallel with the measurement of blood PARK7 concentration. FDG is an agent composed of glucose and a positron-emitting nuclide introduced thereto, and it has almost the same behavior in the body as glucose. […] The SUVmax values indicated below the respective images are semi-quantified values of FDG accumulation.

With CO[C@H]1C[C@@H]2CC[C@@H](C)[C@@](O)(O2)C(=O)C(=O)N2CCCC[C@H]2C(=O)O[C@H]([C@H](C)C[C@@H]2CC[C@@H](OC(=O)C(C)(CO)CO)[C@H](OC)C2)CC(=O)[C@H](C)/C=C(\C)[C@@H](O)[C@@H](OC)C(=O)[C@H](C)C[C@H](C)/C=C/C=C/C=C/1C [Temsirolimus] the “accumulation of FDG (PET/CT)” value (patient with kidney cancer, Case No. 4 (one case)) was “no change in accumulation of FDG” and the “accumulation of FDG (PET/CT)” value (patients with kidney cancer, Case Nos. 1 to 3 (three cases)) was “decreased accumulation of FDG”.
